Experimental data published in patent US7282522B2, “Hydroxamic acid derivatives and the method for preparing thereof” (Amorepacific Corporation, priority 2003, dated 2007).

Assays:
elastase = test: Inhibition of elastase expression in human fibroblasts (ELISA kit); format: cell-based; settings: 10^−4M, 24 hours, serum-free medium, relative to control group = 100
In short: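 Elastase in fibroblast culture fluid quantified by sandwich ELISA: 3 h capture, then chromophore-conjugated secondary antibody, then colour development, stopped with 1M sulfuric acid. Absorbance read at 405 nm. Expression given as % of the untreated control absorbance, with control set to 100.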

white guinea pigs = test: Phototoxicity test (UVA irradiation); settings: for Evaluation (phototoxicity): 1%(w/v) solution, UVA 15 J/cm^2; for Phototoxic index: 50 μl of 1%(w/v) solution, UVA 320~380 nm 15 J/cm^2, observed 24, 48 and 72 hours
collagenase = test: Inhibition of collagenase expression in human fibroblasts (ELISA kit); format: cell-based; settings: 10^−4M, 24 hours, serum-free medium, relative to control group = 100
In short: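 Serum-starved human fibroblasts were treated for 24 h with 10^−4M test material in serum-free DMEM. Collagenase in the culture fluid was measured by sandwich ELISA read at 405 nm. Values are expressed as % of the untreated control (=100).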

RARα = molecular target: T1, RARα (Homo sapiens, UniProt P10276); test: RARE-luciferase reporter assay in transfected CV-1 cells (affinity to retinoic acid receptor), RARα; format: cell-based; settings: treated 24 hours at final concentration 10^−4M, control group 1000
T1 construct: expressed in transfected cells; host or cells: CV-1 cells (ATCC)
T1 sequence (P10276 1-462): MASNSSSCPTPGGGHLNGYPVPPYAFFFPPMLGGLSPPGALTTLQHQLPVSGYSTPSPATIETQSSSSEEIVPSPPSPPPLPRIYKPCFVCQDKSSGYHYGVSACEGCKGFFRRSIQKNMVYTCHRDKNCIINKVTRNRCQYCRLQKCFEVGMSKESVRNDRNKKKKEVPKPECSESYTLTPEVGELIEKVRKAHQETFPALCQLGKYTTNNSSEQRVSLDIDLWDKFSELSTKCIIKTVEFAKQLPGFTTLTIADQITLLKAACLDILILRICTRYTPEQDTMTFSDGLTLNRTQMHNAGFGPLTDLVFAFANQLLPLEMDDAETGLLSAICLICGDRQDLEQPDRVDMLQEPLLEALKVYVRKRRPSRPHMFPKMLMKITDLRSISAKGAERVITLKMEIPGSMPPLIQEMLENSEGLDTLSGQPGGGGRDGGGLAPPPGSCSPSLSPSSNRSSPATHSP
In short: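 CV-1 cells co-transfected with pECE-RARα or pECE-RARγ, RARE-tk-Luc reporter and β-galactosidase vector. Starting 24 h post-transfection, cells were treated for 24 h with compounds at a final 10^−4M; luciferase reporter read-out.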

rabbits = test: Primary skin irritation test on animals (Draize P.I.I.); settings: depilated back; for P.I.I. (Primary Irritation Index): 0.5 ml of 1% solution in 1,3-butylene glycol:ethanol 7:3, observed 24 or 72 hours later; for Evaluation (skin irritation): 1% solution, according to Draize's P.I.I.
Experimental: Test was performed using fifty-six (56) of healthy male rabbits whose backs were depilated. […] 0.5ml of the test sample solution was applied to the right site of 2.5 cm×2.5 cm region on each of the depilated back. Left site with no sample treated was compared as a control. 24 hours or 72 hours later, skin abnormality such as erythema, crust and edema was observed.
Based on the score of skin response, skin irritation was evaluated according to Draize's P.I.I.(Primary Irritation Index) and compared with retinoic acid.

RARγ = molecular target: T2, RARγ (Homo sapiens, UniProt P13631); test: RARE-luciferase reporter assay in transfected CV-1 cells (affinity to retinoic acid receptor), RARγ; format: cell-based; settings: treated 24 hours at final concentration 10^−4M, control group 5000
T2 construct: expressed in transfected cells; host or cells: CV-1 cells (ATCC)
T2 sequence (P13631 1-454): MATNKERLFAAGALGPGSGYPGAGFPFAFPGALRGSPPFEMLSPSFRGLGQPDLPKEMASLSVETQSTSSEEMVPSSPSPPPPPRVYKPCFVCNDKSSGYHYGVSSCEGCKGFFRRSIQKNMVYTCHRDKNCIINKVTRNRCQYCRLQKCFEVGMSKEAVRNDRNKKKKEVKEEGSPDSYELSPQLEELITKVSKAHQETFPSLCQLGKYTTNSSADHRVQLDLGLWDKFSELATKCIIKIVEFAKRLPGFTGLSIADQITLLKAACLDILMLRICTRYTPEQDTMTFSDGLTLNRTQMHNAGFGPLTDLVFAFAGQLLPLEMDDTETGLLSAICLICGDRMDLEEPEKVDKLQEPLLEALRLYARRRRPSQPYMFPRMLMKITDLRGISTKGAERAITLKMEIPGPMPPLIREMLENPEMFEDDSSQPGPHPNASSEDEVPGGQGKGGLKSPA
In short: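 CV-1 cells in DMEM with 2.5% FBS, 5,000 per well, transfected 24 h after seeding with 10 ng pECE-RARα, pECE-RARγ, 100 ng RARE-tk-Luc reporter and 100 ng β-galactosidase vector. Read-out is RARE-driven luciferase.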

procollagen type I = test: Effect on collagen biosynthesis (procollagen type I ELISA) in human fibroblasts; format: cell-based; settings: 10^−4M, 24 hours, serum-free medium, relative to control group = 100
Experimental: Human fibroblasts were seeded into 24-well plate at 1×10^5 cells per well and then cultured to 90% of growth.
For each supernatant, procollagen production was measured with procollagen type I ELISA kit.

| Structure (SMILES) | Elastase expression (%) (elastase) | Evaluation (phototoxicity) (white guinea pigs) | Phototoxic index (white guinea pigs) | Collagenase expression (%) (collagenase) | Luciferase activity RARα (RARα) | P.I.I. (Primary Irritation Index) (rabbits) | Evaluation (skin irritation) (rabbits) | Luciferase activity RARγ (RARγ) | Collagen biosynthesis (%) (procollagen type I) |
| --- | --- | --- | --- | --- | --- | --- | --- | --- | --- |
| CC(C)c1ccc(C(=O)Nc2ccc(CC(=O)NO)cc2)cc1 [Example 28, N-[4-(N-hydroxycarbamoylmethyl)phenyl][4-isopropylphenyl]carboxyamide] | 79% | No phototoxicity (lower value than 0.5, criterion value to be estimated as no phototoxicity) | 0 | 67% | 12900 | 0.765 | No irritation | 10700 | 121% |
| CC(C)c1ccc(N(C)C(=O)c2ccc(C(=O)NO)cc2)cc1 [Example 50, [4-(N-hydroxycarbamoyl)phenyl]-N-methyl-N-[4-isopropylphenyl]carboxyamide] | 78% | No phototoxicity (lower value than 0.5, criterion value to be estimated as no phototoxicity) | 0 | 80% | 12300 | 0.234 | No irritation | 11212 | 110% |
| CN(O)C(=O)Cc1ccc(NC(=O)C23CC4CC(CC(C4)C2)C3)cc1 [Example 33, 2-[4-(adamantlycarbonylamino)phenyl]-N-hydroxy-N-methylacetamide] | 82% | No phototoxicity (lower value than 0.5, criterion value to be estimated as no phototoxicity) | 0 | 70% | 13400 | 0.765 | No irritation | 11000 | 112% |
| CC(C)(C)c1ccc(C(=O)Nc2ccc(CC(=O)NO)cc2)cc1 [Example 30, N-[4-(N-hydroxycarbamoylmethyl)phenyl][4-tert-butylphenyl]carboxyamide] | 69% | No phototoxicity (lower value than 0.5, criterion value to be estimated as no phototoxicity) | 0 | 83% | 23500 | 0.456 | No irritation | 12000 | 121% |
| Cc1ccc(C(=O)Nc2ccc(C(=O)NO)cc2)cc1 [Example 2, N-[4-(N-hydroxycarbamoyl)phenyl][4-methylphenyl]carboxyamide] | 78% | No phototoxicity (lower value than 0.5, criterion value to be estimated as no phototoxicity) | 0 | 68% | 12000 | 0.345 | No irritation | 11200 | 118% |
| Cc1ccc(NC(=O)c2ccc(C(=O)NO)cc2)cc1C [Example 42, [4-(N-hydroxycarbamoyl)phenyl]-N-[3,4-dimethylphenyl]carboxyamide] | 76% | No phototoxicity (lower value than 0.5, criterion value to be estimated as no phototoxicity) | 0 | 78% | 14500 | 0.987 | No irritation | 11200 | 116% |
| Cc1ccc(C(=O)Nc2ccc(CC(=O)NO)cc2)cc1C [Example 31, N-[4-(N-hydroxycarbamoylmethyl)phenyl][3,4-dimethylphenyl]carboxyamide] | 63% | No phototoxicity (lower value than 0.5, criterion value to be estimated as no phototoxicity) | 0 | 81% | 23100 | 0.567 | No irritation | 10700 | 109% |
| O=C(Cc1ccc(NC(=O)C23CC4CC(CC(C4)C2)C3)cc1)NO [Example 32, N-[4-(N-hydroxycarbamoylmethyl)phenyl]adamantyl carboxyamide] | 74% | No phototoxicity (lower value than 0.5, criterion value to be estimated as no phototoxicity) | 0 | 79% | 18000 | 0.375 | No irritation | 10000 | 125% |
| CCCc1ccc(C(=O)Nc2ccc(CC(=O)NO)cc2)cc1 [Example 27, N-[4-(N-hydroxycarbamoylmethyl)phenyl][4-propylphenyl]carboxyamide] | 87% | No phototoxicity (lower value than 0.5, criterion value to be estimated as no phototoxicity) | 0 | 87% | 13920 | 0.568 | No irritation | 11300 | 112% |
| CCc1ccc(NC(=O)c2ccc(C(=O)NO)cc2)cc1 [Example 37, [4-(N-hydroxycarbamoyl)phenyl]-N-[4-ethylphenyl]carboxyamide] | 80% | No phototoxicity (lower value than 0.5, criterion value to be estimated as no phototoxicity) | 0 | 70% | 19000 | 0.456 | No irritation | 10300 | 121% |
